# Several values for one entry are separate records, joined by “and”; a condition that tells them apart may be missing. Equal values may be shown once. Read-outs that look alike come from different tables or passages of the source.
# How the values were obtained:
# [1] = for -Initial slope, k: 8.6 mg/L H2O2 injected, 6 trays, 20 min pre-plasma, first 50 seconds after maximum concentration
# Method: (§1) The pressure inside the chamber was also monitored as a function of time. After the completion of the sterilization cycle, the chamber was vented, the equipment was removed, and the inoculated coupons were tested for growth in the medium. […] The sterilization results and the summary of the various methods of analyzing the hydrogen concentration data are shown in Table 2 below.
# The data were analyzed in various ways to determine whether a method could be found to quickly determine the suitability of the load for sterilization.
# FIGS. 5-8 show graphs of ln(c/c0) versus time for a validation load (FIG. 5), a heavy load (FIG. 6), a heavy load with a new towel (FIG. 7), and a heavy load with an old towel (FIG. 8).
# The initial slopes in Table 2 are recorded as the negative of the initial slopes for simplicity in recording the data.
# The final concentration is measured at the end of the diffusion step 50, prior to evacuating and generating the post-injection plasma.
# [2] = test system: Bacillus stearothermophilus spores
# Method: The sterilization process was run under the following conditions:
# The trays containing the inoculated coupons and the various loads were wrapped with sterilization wrap and sealed with sterilization tape.
# The effectiveness of the sterilization process was determined by placing stainless steel coupons inoculated with >10^6 Bacillus stearothermophilus spores as biological indicators (BI's) into 3 mm×400 mm stainless steel lumens. The lumens were placed into double-wrapped sterilizer trays with the loads of medical instruments to be sterilized. At the end of the cycle, the BIs were recovered from the lumens, placed into tubes of TSB (Trypticase soy broth) medium and incubated at 55-60° C. for 14 days. The biological activity was then determined.
# as §1
# [3] = Group 7 validation loads with one towel
# [4] = Group 8 validation loads with two towels
smiles,measurement,setting,value
OO [hydrogen peroxide],"Initial slope, average",[1]; Group 1 runs with the validation loads,0.00983 s⁻¹
same,"-Initial slope, k","[1]; Group 2: heavy load, 1 filter",0.016 s⁻¹
same,"-Initial slope, k","[1]; Group 2: heavy load, 2 filters",0.017 s⁻¹
same,"-Initial slope, k","[1]; Group 2: heavy load, brass",0.012 s⁻¹
same,"-Initial slope, k","[1]; Group 2: heavy load, mat",0.013 s⁻¹
same,"-Initial slope, k",[1]; Group 2: heavy load,0.016 s⁻¹
same,"Initial slope, average",[1]; Group 2 runs with the heavy loads,0.0145 s⁻¹
same,"Initial slopes, range over runs",[1]; Group 2 runs with the heavy loads (all variants),0.012 to 0.017 s⁻¹
same,"-Initial slope, k","[1]; Group 3: heavy load, 1 new towel",0.026 s⁻¹
same,"-Initial slope, k","[1]; Group 3: heavy load, 2 new towels",0.028 s⁻¹
same,"-Initial slope, k","[1]; Group 3: heavy load, 6/8 towel",0.019 s⁻¹
same,"Initial slope, average",[1]; Group 3 runs with the heavy loads and new towel,0.0243 s⁻¹
same,"Initial slopes, range over runs",[1]; Group 3 runs with the heavy loads and new towel (all variants),0.019 to 0.028 s⁻¹
same,"-Initial slope, k","[1]; Group 4: heavy load, 1 old towel",0.039 s⁻¹ and 0.025 s⁻¹
same,"Initial slope, average",[1]; Group 4 runs with the heavy loads and old towel,0.032 s⁻¹
same,"Initial slope, average",[1]; Group 5 runs with the cold validation loads and 15 minutes of pre-plasma,0.0095 s⁻¹
same,"Initial slope, average",[1]; Group 6 runs with the cold condensing validation loads with no pre-plasma,0.0164 s⁻¹
same,"Initial slope, average",[1]; [3],0.0195 s⁻¹
same,"Initial slope, average",[1]; [4],0.028 s⁻¹
same,Initial slope by type of load,"[1]; cold, condensing load",0.016 s⁻¹
same,Initial slope by type of load,[1]; heavy load,0.015 s⁻¹
same,Initial slope by type of load,[1]; heavy load with towel,> 0.020 s⁻¹
same,Initial slope by type of load,[1]; validation load,0.010 s⁻¹
same,Fraction Positive BIs,"[2]; Group 1: validation load, 8.6 or 9.3 mg/L H2O2 injected, 6 trays, 20 min pre-plasma",0/10
same,BI's of all runs of the group,[2]; Group 1 validation loads,negative
same,Fraction Positive BIs,"[2]; Group 2: heavy load, 1 filter, 8.6 mg/L H2O2 injected, 6 trays, 20 min pre-plasma",0/10
same,Fraction Positive BIs,"[2]; Group 2: heavy load, 2 filters, 8.6 mg/L H2O2 injected, 6 trays, 20 min pre-plasma",0/10
same,Fraction Positive BIs,"[2]; Group 2: heavy load, brass, 8.6 mg/L H2O2 injected, 6 trays, 20 min pre-plasma",0/10
same,Fraction Positive BIs,"[2]; Group 2: heavy load, mat, 8.6 mg/L H2O2 injected, 6 trays, 20 min pre-plasma",0/10
same,Fraction Positive BIs,"[2]; Group 2: heavy load, 8.6 mg/L H2O2 injected, 6 trays, 20 min pre-plasma",1/10
same,"Positive BI's, total of all runs of the group",[2]; Group 2 heavy loads,1 of the 60
same,Fraction Positive BIs,"[2]; Group 3: heavy load, 1 new towel, 8.6 mg/L H2O2 injected, 6 trays, 20 min pre-plasma",6/10
same,Fraction Positive BIs,"[2]; Group 3: heavy load, 2 new towels, 8.6 mg/L H2O2 injected, 6 trays, 20 min pre-plasma",5/10
same,Fraction Positive BIs,"[2]; Group 3: heavy load, 6/8 towel, 8.6 mg/L H2O2 injected, 6 trays, 20 min pre-plasma",3/10
same,"Positive BI's, total of all runs of the group",[2]; Group 3 heavy load/new towel runs,14/30
same,Fraction Positive BIs,"[2]; Group 4: heavy load, 1 old towel, 8.6 mg/L H2O2 injected, 6 trays, 20 min pre-plasma",10/10
same,"Positive BI's, total of all runs of the group",[2]; Group 4 heavy load/old towel runs,20 of the 20
same,Fraction Positive BIs,"[2]; Group 5: validation load, initial load temperature 5° C., 9.3 mg/L H2O2 injected, 4 trays, 15 min pre-plasma",0/12
same,BI's of all runs of the group,"[2]; Group 5 cold validation loads, 15 minutes of pre-plasma, 72 BI's",negative
same,Fraction Positive BIs,"[2]; Group 6: validation load, initial load temperature 5° C., 9.3 mg/L H2O2 injected, 4 trays, no pre-plasma",0/12
same,BI's of all runs of the group,"[2]; Group 6 cold condensing validation loads, no pre-plasma",negative
same,"Positive BI's, total of all runs of the group",[2]; [3],4/72
same,"Positive BI's, total of all runs of the group",[2]; [4],3/73

# Reference: US20030156977A1, “Method for rapidly sterilizing a load” (priority 2000, published 2003)
